In PubChem BioAssay (NCI):
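Protocol summary: plate cells (96-well), add compound at 5 concentrations, incubate 48 h, interpolate endpoints linearly. Abbreviation: GI50, concentration required for 50% inhibition of growth. Definition used: TGI = concentration required for complete inhibition of growth.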

What was measured:
Assay in all cases: DTP human tumour cell line panel, 48 h
SF-268 CNS = system: SF-268 CNS
A498 renal = system: A498 renal
HT29 colon = system: HT29 colon
SW-620 colon = system: SW-620 colon
NCI-H522 lung = system: NCI-H522 lung
RPMI-8226 leukemia = system: RPMI-8226 leukemia
CAKI-1 renal = system: CAKI-1 renal
CCRF-CEM leukemia = system: CCRF-CEM leukemia
SN12C renal = system: SN12C renal
HS 578T breast = system: HS 578T breast
MDA-MB-435 = system: MDA-MB-435
COLO 205 colon = system: COLO 205 colon
BT-549 breast = system: BT-549 breast
MALME-3M melanoma = system: MALME-3M melanoma
A549 NSCLC = system: A549 NSCLC
NCI-H23 lung = system: NCI-H23 lung
KM12 colon = system: KM12 colon
UACC-257 melanoma = system: UACC-257 melanoma
MDA-MB-468 breast = system: MDA-MB-468 breast
SNB-19 CNS = system: SNB-19 CNS
RXF 393 renal = system: RXF 393 renal
LOX IMVI melanoma = system: LOX IMVI melanoma
MCF7 breast = system: MCF7 breast
T-47D breast = system: T-47D breast
MOLT-4 leukemia = system: MOLT-4 leukemia
OVCAR-4 ovarian = system: OVCAR-4 ovarian
EKVX NSCLC = system: EKVX NSCLC
K-562 leukemia = system: K-562 leukemia
TK-10 renal = system: TK-10 renal

O=C(NNc1nc2cc(F)ccc2n2c(CN3CCCCC3)ccc12)c1cnccn1
GI50 (SF-268 CNS): 1330 nM | TGI (SF-268 CNS): 11800 nM | GI50 (A498 renal): 13900 nM | TGI (A498 renal): 26900 nM | GI50 (HT29 colon): 474 nM | TGI (HT29 colon): 13300 nM | GI50 (SW-620 colon): 1070 nM | TGI (SW-620 colon): 10700 nM | GI50 (NCI-H522 lung): 1360 nM | TGI (NCI-H522 lung): 5100 nM | GI50 (RPMI-8226 leukemia): 953 nM | TGI (RPMI-8226 leukemia): 12100 nM | GI50 (CAKI-1 renal): 918 nM | TGI (CAKI-1 renal): 11000 nM | GI50 (CCRF-CEM leukemia): 462 nM | TGI (CCRF-CEM leukemia): 3170 nM | GI50 (SN12C renal): 1290 nM | TGI (SN12C renal): 8500 nM | GI50 (HS 578T breast): 2620 nM | TGI (HS 578T breast): 18000 nM | GI50 (MDA-MB-435): 2740 nM | TGI (MDA-MB-435): 13900 nM | GI50 (COLO 205 colon): 1160 nM | TGI (COLO 205 colon): 9740 nM | GI50 (BT-549 breast): 1570 nM | TGI (BT-549 breast): 12700 nM | GI50 (MALME-3M melanoma): 2310 nM | TGI (MALME-3M melanoma): 8940 nM | GI50 (A549 NSCLC): 1220 nM | TGI (A549 NSCLC): 11800 nM | GI50 (NCI-H23 lung): 1390 nM | TGI (NCI-H23 lung): 3430 nM | GI50 (KM12 colon): 1170 nM | TGI (KM12 colon): 12400 nM | GI50 (UACC-257 melanoma): 2730 nM | TGI (UACC-257 melanoma): 9770 nM | GI50 (MDA-MB-468 breast): 1200 nM | TGI (MDA-MB-468 breast): 3100 nM | GI50 (SNB-19 CNS): 1540 nM | TGI (SNB-19 CNS): 12000 nM | GI50 (RXF 393 renal): 1690 nM | TGI (RXF 393 renal): 5620 nM | GI50 (LOX IMVI melanoma): 682 nM | TGI (LOX IMVI melanoma): 2880 nM | GI50 (MCF7 breast): 1580 nM | TGI (MCF7 breast): 10300 nM | GI50 (T-47D breast): 2070 nM | TGI (T-47D breast): 10200 nM | GI50 (MOLT-4 leukemia): 388 nM | TGI (MOLT-4 leukemia): 2320 nM | GI50 (OVCAR-4 ovarian): 842 nM | TGI (OVCAR-4 ovarian): 4550 nM | GI50 (EKVX NSCLC): 525 nM | TGI (EKVX NSCLC): 3760 nM | GI50 (K-562 leukemia): 1220 nM | TGI (K-562 leukemia): 4580 nM | GI50 (TK-10 renal): 969 nM | TGI (TK-10 renal): 10200 nM
